Consider one compound from patent US20210130411A1, “CYCLIC HEXAPEPTIDES COMPOUNDS WITH ANTI-MALARIAL ACTIVITY” (priority 2018, published 2021).

Where a SMILES comes first, the peptide text is derived from it. [ ]: non-standard residue; d: D form. The star is where a group is joined. Trt = c1ccc(C(c2ccccc2)(c2ccccc2)*)cc1; Sar = CNCC(=O)O; tBu = CC(C)(C)* Where only a bound is given, the exact number is not on record here.

The test system of experiment [1] is P. falciparum K1 (chloroquine-resistant strain). The experiment in a line: microbe, parasite or virus in culture. The note with it: read-out: EC50 P. f. K1; intraerythrocytic form, chloroquine-resistant strain. As for the experimental part: For the in vitro study of the antimalarial activity against P. falciparum K1, this strain originating from Thailand that is resistant to chloroquine and pyrimethamine but sensitive to mefloquine was used. The cultures are naturally asynchronous (65-75% ring stage) and are maintained in continuous log phase growth in RPM11640 medium supplemented with 5% washed human A+erythrocytes, 25 mM HEPES, […] NaHCO3, and AlbuMAXII (lipid-rich bovine serum albumin) (GIBCO, Grand Island, N.Y.) (CM). All cultures and assays are conducted at 37° C. under an atmosphere of 5% CO2 and 5% 02, with a balance of N2.
For drug sensitivity assays, tock drug solutions are prepared in 100% DMSO (dimethylsulfoxide) at 20 mM. The compound is further diluted to the appropriate concentration using complete medium RPM11640 supplemented with 15 nM cold hypoxanthine and AlbuMAXII. Assays are performed in sterile 96-well microtitre plates, each plate contains […] of parasite culture (0.5% parasitemia, 2.5% hematocrit). Each drug is tested in triplicate and parasite growth is compared to control and blank (uninfected erythrocytes) wells. After 24 h of incubation at 37° C., 3.7 Bq of [3H]hypoxanthine is added to each well. Cultures are incubated for a further 24 h before they are harvested onto glass-fiber filter mats. The radioactivity is counted using a Wallac Microbeta 1450 scintillation counter. […] The percentage inhibition is calculated from comparison of blank and control wells, and EC50 values are calculated using Prism™. Screen. The K1 line is used. The compound is diluted threefold over 12 different concentrations with an appropriate starting concentration. The EC50 is determined by a sigmoidal dose-response analysis using Prism™. For each assay, the EC50 value for the parasite line is determined against the known antimalarials chloroquine and artesunate, plus other standard compounds appropriate for the assay.
were tested in vitro against the intraerythrocytic form of the parasite Plasmodium falciparum K1 (chloroquine-resistant strain) and Plasmodium falciparum 31D7 (chloroquine-sensitive strain). The selectivity index (SI) was determined as the ration between EC50 against murine macrophages or HepG2 cells and the EC50 against P. falciparum.

Experiment [2] deals with murine macrophages or HepG2 cells. In words: Selectivity index: EC50 against murine macrophages or HepG2 cells over EC50 against P. falciparum. The class given is cell-based. The conditions noted are these: ratio of EC50 against murine macrophages or HepG2 cells to EC50 against P. falciparum. Here is the method: (§1) were tested in vitro against the intraerythrocytic form of the parasite Plasmodium falciparum K1 (chloroquine-resistant strain) and Plasmodium falciparum 31D7 (chloroquine-sensitive strain). The selectivity index (SI) was determined as the ration between EC50 against murine macrophages or HepG2 cells and the EC50 against P. falciparum. In the following Table 1 is shown the results of the EC50 obtained for each of the tested compounds against P. falciparum K1 (P. f. K1) and P. falciparum 3D7 (P. f. 3D7) and the SI calculated.

Experiment [3] relates to Plasmodium falciparum 3D7 (chloroquine-sensitive strain). In words: microbe, parasite or virus in culture. The class given is cell-based. The conditions noted are these: intraerythrocytic form, chloroquine-sensitive strain; read-out: EC50 P. f. 3D7. Here is the method:
For the in vitro study of the antimalarial activity against P. falciparum D7, two stock solutions were prepared: solution A (dilution of powder sample) at 20 mM and solution B at 1 mM (made by dilution of solution A). Next, the compounds were diluted 100-fold (drug solution=10 μM), then, suitable volume of drug solution was transferred in the SYBR GREEN assay plate (final concentration=10-0.15 μM). However, due to the high potency of the samples, the initial concentration was reduced in order to determine the EC50 values. The assay condition included: hematocrit at 2%, initial parasitemia 0.5% and artesunate and pyrimethamine were used as positive control. The fluorescence of each well is measured. The EC50 value of each compound was assessed in at least two independent experiments.
as §1

The subject of the next experiment is P. falciparum 3D7 strain. In words: Killing rates assay, P. falciparum 3D7 intraerythrocytic form. It counts as cell-based, Plasmodium falciparum. Here is the method:
The assay was performed in P. falciparum 3D7 strain in its intraerythrocytic form. […] Each compound was renewed (washing the parasites and adding culture media and the compound again) after the first 24 hours of treatment.

A further experiment has as its system P. b. (liver st). The experiment in a line: Biological activity in vitro against the hepatic form of the parasite. It counts as cell-based, P. berghei.

In general, EC50 refers to the midpoint of the concentration-response curve. On to `C[C@@H](OC(C)(C)C)[C@@H]1NC(=O)CN(C)C(=O)[C@H](CSC(c2ccccc2)(c2ccccc2)c2ccccc2)NC(=O)CN(C)C(=O)[C@H](CSC(c2ccccc2)(c2ccccc2)c2ccccc2)NC(=O)CN(C)C1=O` [SP79, Cycle-NMe-Gly-L-Thr(^t-Bu)-NMe-Gly-L-Cys(Trt)-NMe-Gly-L-Cys(Trt)] (cyclo(C(Trt)[Sar]C(Trt)[Sar]T(tBu)[Sar])), for which the EC50 in experiment [1] came out at 0.7 nM; in experiment [3], 1 nM; in the experiment with P. b. (liver st), 18.6 nM. Besides, the SI in experiment [2] is more than 140000. In addition, the Survival % in the experiment on P. falciparum 3D7 strain (0 hrs of treatment, compound at 10×EC50) is given as 100%; in the experiment with P. falciparum 3D7 strain (24 hrs of treatment, compound at 10×EC50 (CF89 500 nM, SP79 30 nM)) it was 83.74%; in the experiment with P. falciparum 3D7 strain (48 hrs of treatment, compound renewed after 24 hrs, 10×EC50), 57.48%.
